Numbered stars: 1 amine (or outer) side, 2 acyl side, 3 side chain; on linkers, the order of the positions; unused ones are H or OH. Square brackets hold non-standard residues; d marks the D form. Side chains are listed from the residue outwards. * marks the point of attachment. C20 diacid = O=C(O)CCCCCCCCCCCCCCCCCCC(=O)*; C18 diacid = O=C(O)CCCCCCCCCCCCCCCCC(=O)*; γGlu = O=C(O)[C@H](CCC(=O)[*:2])N[*:1]; AEEA = NCCOCCOCC(=O)O; Aib = CC(C)(N)C(=O)O
Target: T1, human GIP receptor (hGIPR) (Homo sapiens, UniProt P48546)
T1 construct: expressed in transfected cells
T1 sequence (P48546 22-466): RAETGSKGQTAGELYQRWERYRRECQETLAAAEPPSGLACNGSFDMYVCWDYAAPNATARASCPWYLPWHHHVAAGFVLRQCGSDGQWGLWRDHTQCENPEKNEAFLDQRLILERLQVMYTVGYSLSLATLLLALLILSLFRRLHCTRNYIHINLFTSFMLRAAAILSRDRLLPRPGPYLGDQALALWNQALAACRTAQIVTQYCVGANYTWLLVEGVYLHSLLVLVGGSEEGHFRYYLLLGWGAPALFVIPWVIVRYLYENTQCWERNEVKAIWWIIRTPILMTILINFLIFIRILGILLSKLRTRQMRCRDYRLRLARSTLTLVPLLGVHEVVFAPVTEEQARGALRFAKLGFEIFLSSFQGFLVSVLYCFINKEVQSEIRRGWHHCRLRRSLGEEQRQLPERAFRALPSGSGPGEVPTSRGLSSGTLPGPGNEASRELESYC
Experiment: GIP receptor assay, method A (CRE-luciferase reporter, BHK cells)
Type: cell-based
Conditions: hGIPR Potency, 1% HSA, EC50, method A, in the presence of 1% HSA
Outline: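 BHK cells co-expressing hGIPR and a CRE-luciferase reporter were stimulated for 3 h at 37 °C with a 7-point, 10-fold compound titration in duplicate. Buffer was DMEM, 10 mM HEPES, 1% ovalbumin, 0.1% Pluronic F-68, without HSA or with 1% (w/v) HSA. EC50 [pM] came from four-parameter logistic fits of luminescence.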

Substance	EC50 [pM]
Y[Aib]EGTFTSDYSILLEEQAAREFIEWLLAGGPSSGAGQAPGQAPGASHLSTAQTQRLSAELHRLK([AEEA-AEEA-γGlu-C18 diacid])TLPRTETGSGSP-NH2 [Compound 56]	8.48
Y[Aib]EGTFTSDYSILLEEQAAREFIEWLLAGGPSSGALQAPGQAPLASHLSTAQTQRLSAELHK([AEEA-AEEA-γGlu-C20 diacid])LATLPRTETGSGSP-NH2 [Compound 99]	7.41
Y[Aib]EGTFTSDYSILLEEQAAREFIEWLLAGGPSSGAPPPSGGGEASHLSTAQTQRLSAK([AEEA-AEEA-γGlu-C18 diacid])LHRLATLPRTETGSGSP-NH2 [Compound 109]	17.4
Y[Aib]EGTFTSDYSILLEEQAAREFIEWLLAGGPSSGAPPPSGGGEASHLSTAQTQRLSAK([AEEA-AEEA-γGlu-C20 diacid])LHRLATLPRTETGSGSP-NH2 [Compound 110]	29.3
Y[Aib]EGTFTSDYSILLEEQAAREFIEWLLAGGPSSGEASHLSTAQTQRLSAELHK([AEEA-AEEA-γGlu-C18 diacid])LATLPRTETGSGSP-NH2 [Compound 50]	15.1
Y[Aib]EGTFTSDYSILLEEQAAREFIEWLLAGGPSSGEASHLSTAQTQRLSAELHRLK([AEEA-AEEA-γGlu-C18 diacid])TLPRTETGSGSP-NH2 [Compound 80]	20.3
Y[Aib]EGTFTSDYSILLEEQAAREFIEWLLAGGPSSGEASHLSTAQTQRLSAK([AEEA-AEEA-γGlu-C18 diacid])LHRLATLPRTETGSGSP-NH2 [Compound 79]	24.7

Same assay, conditions: method A, absence of HSA; read-out: hGIPR Potency, no HSA, EC50

Substance	EC50 [pM]
Y[Aib]EGTFTSDYSILLEEQAAREFIEWLLAGGPSK([AEEA-AEEA-γGlu-C18 diacid])GEASHLSTAQTARLSAELHELATLPRTETGSGSP-NH2 [Compound 35]	1.97
Y[Aib]EGTFTSDYSILLEEQAAREFIEWLLAGGPSSGAGQAPGQAPGASHLSTAQTQRLSAELHRLK([AEEA-AEEA-γGlu-C18 diacid])TLPRTETGSGSP-NH2 [Compound 56]	2.65
Y[Aib]EGTFTSDYSILLEEQAAREFIEWLLAGGPSSGALQAPGQAPLASHLSTAQTQRLSAELHK([AEEA-AEEA-γGlu-C20 diacid])LATLPRTETGSGSP-NH2 [Compound 99]	2.09
Y[Aib]EGTFTSDYSILLEEQAAREFIEWLLAGGPSSGAPPPSGGGEASHLSTAQTQRLSAK([AEEA-AEEA-γGlu-C18 diacid])LHRLATLPRTETGSGSP-NH2 [Compound 109]	7.42
Y[Aib]EGTFTSDYSILLEEQAAREFIEWLLAGGPSSGAPPPSGGGEASHLSTAQTQRLSAK([AEEA-AEEA-γGlu-C20 diacid])LHRLATLPRTETGSGSP-NH2 [Compound 110]	8.01
Y[Aib]EGTFTSDYSILLEEQAAREFIEWLLAGGPSSGEASHLSTAQTQRLSAELHK([AEEA-AEEA-γGlu-C18 diacid])LATLPRTETGSGSP-NH2 [Compound 50]	2.36
Y[Aib]EGTFTSDYSILLEEQAAREFIEWLLAGGPSSGEASHLSTAQTQRLSAELHRLK([AEEA-AEEA-γGlu-C18 diacid])TLPRTETGSGSP-NH2 [Compound 80]	4.01
Y[Aib]EGTFTSDYSILLEEQAAREFIEWLLAGGPSSGEASHLSTAQTQRLSAK([AEEA-AEEA-γGlu-C18 diacid])LHRLATLPRTETGSGSP-NH2 [Compound 79]	4.7

System: Male Sprague Dawley (SD) rats
Experiment: Efficacy testing on appetite: acute food intake in ad libitum fed normal weight rats
Type: in vivo, rat
Conditions: single dose 10 nmol/kg, day 1 [0-24 hours]
Text: Male Sprague Dawley (SD) rats from Taconic, Denmark were used for the acute food intake experiments, wherein the principles of laboratory animal care were followed.
The rats arrived at least 10-14 days before the start of the experiment to allow acclimatization to experimental settings. During this period, the animals were handled (fixation by restrain in neck skin) at least 2 times. Immediately upon arrival, rats were changed to a reversed light cycle (dark from 11 am-11 pm) and were transferred to an automated food intake measuring system (HM2 system, MBRose; Faaborg, Denmark). […] To enable recording of individual food intake, rats were ID chipped. Three rats were housed in each cage. During the acclimatization period, in which the rats get used to the new light cycle and diet (LF 10% (D12450B), from Research Diets Inc.), the animals had free access to food and water. Since rats are normally active and consume most of their daily calories during the dark period, rats were dosed in the morning right before lights were turned off. Such a set-up results in the lowest data variation and highest test sensitivity. […] In each cage there were animals from three different treatment groups (to eliminate potential cage effects (e.g. cage malfunction) on primary readout: food intake). The rats were dosed once subcutaneously (s.c.) with the peptide of interest according to body weight (10 or 30 nmol/kg) in vehicle (0.5 ml/kg) using a NovoPen® (Novo Nordisk, Bagsvæed, Denmark).
The compounds of the invention were formulated (20 or 60 nmol/ml) in the following vehicle: 8 mM phosphate; 250 mM glycerol; 0.007% polysorbate 20, pH 7.4.
After dosing, the rats were returned to their home cages, where they continued to have ad libitum access to chow and water. The food consumption was recorded individually and continuously by the HM2 system from 0-72 h after test compound administration. Data obtained by the HM-2 system were stored in a HMBase SQL database (Firebird® relational database management system) and were processed by HM2Lab software (MBRose; Faaborg, Denmark) installed in an embedded computer. The feeding system is a highly sensitive system with a load resolution of 0.001 g.

Substance	Food intake (relative to vehicle) Day 1 [%]
Y[Aib]EGTFTSDYSILLEEQAAREFIEWLLAGGPSSGAGQAPGQAPGASHLSTAQTQRLSAELHRLK([AEEA-AEEA-γGlu-C18 diacid])TLPRTETGSGSP-NH2 [Compound 56]	−69
Y[Aib]EGTFTSDYSILLEEQAAREFIEWLLAGGPSSGALQAPGQAPLASHLSTAQTQRLSAELHK([AEEA-AEEA-γGlu-C20 diacid])LATLPRTETGSGSP-NH2 [Compound 99]	−69
Y[Aib]EGTFTSDYSILLEEQAAREFIEWLLAGGPSSGAPPPSGGGEASHLSTAQTQRLSAK([AEEA-AEEA-γGlu-C18 diacid])LHRLATLPRTETGSGSP-NH2 [Compound 109]	−85
Y[Aib]EGTFTSDYSILLEEQAAREFIEWLLAGGPSSGAPPPSGGGEASHLSTAQTQRLSAK([AEEA-AEEA-γGlu-C20 diacid])LHRLATLPRTETGSGSP-NH2 [Compound 110]	−75
Y[Aib]EGTFTSDYSILLEEQAAREFIEWLLAGGPSSGEASHLSTAQTQRLSAELHK([AEEA-AEEA-γGlu-C18 diacid])LATLPRTETGSGSP-NH2 [Compound 50]	−54
Y[Aib]EGTFTSDYSILLEEQAAREFIEWLLAGGPSSGEASHLSTAQTQRLSAELHRLK([AEEA-AEEA-γGlu-C18 diacid])TLPRTETGSGSP-NH2 [Compound 80]	−84
Y[Aib]EGTFTSDYSILLEEQAAREFIEWLLAGGPSSGEASHLSTAQTQRLSAK([AEEA-AEEA-γGlu-C18 diacid])LHRLATLPRTETGSGSP-NH2 [Compound 79]	−70

Same assay, conditions: single dose 10 nmol/kg, day 2 [24-48 hours]

Substance	Food intake (relative to vehicle) Day 2 [%]
Y[Aib]EGTFTSDYSILLEEQAAREFIEWLLAGGPSSGAGQAPGQAPGASHLSTAQTQRLSAELHRLK([AEEA-AEEA-γGlu-C18 diacid])TLPRTETGSGSP-NH2 [Compound 56]	−77
Y[Aib]EGTFTSDYSILLEEQAAREFIEWLLAGGPSSGALQAPGQAPLASHLSTAQTQRLSAELHK([AEEA-AEEA-γGlu-C20 diacid])LATLPRTETGSGSP-NH2 [Compound 99]	−84
Y[Aib]EGTFTSDYSILLEEQAAREFIEWLLAGGPSSGAPPPSGGGEASHLSTAQTQRLSAK([AEEA-AEEA-γGlu-C18 diacid])LHRLATLPRTETGSGSP-NH2 [Compound 109]	−34
Y[Aib]EGTFTSDYSILLEEQAAREFIEWLLAGGPSSGAPPPSGGGEASHLSTAQTQRLSAK([AEEA-AEEA-γGlu-C20 diacid])LHRLATLPRTETGSGSP-NH2 [Compound 110]	−54
Y[Aib]EGTFTSDYSILLEEQAAREFIEWLLAGGPSSGEASHLSTAQTQRLSAELHK([AEEA-AEEA-γGlu-C18 diacid])LATLPRTETGSGSP-NH2 [Compound 50]	−60
Y[Aib]EGTFTSDYSILLEEQAAREFIEWLLAGGPSSGEASHLSTAQTQRLSAELHRLK([AEEA-AEEA-γGlu-C18 diacid])TLPRTETGSGSP-NH2 [Compound 80]	−78
Y[Aib]EGTFTSDYSILLEEQAAREFIEWLLAGGPSSGEASHLSTAQTQRLSAK([AEEA-AEEA-γGlu-C18 diacid])LHRLATLPRTETGSGSP-NH2 [Compound 79]	−54

Same assay, conditions: single dose 10 nmol/kg, day 3 [48-72 hours]

Substance	Food intake (relative to vehicle) Day 3 [%]
Y[Aib]EGTFTSDYSILLEEQAAREFIEWLLAGGPSSGAGQAPGQAPGASHLSTAQTQRLSAELHRLK([AEEA-AEEA-γGlu-C18 diacid])TLPRTETGSGSP-NH2 [Compound 56]	−10
Y[Aib]EGTFTSDYSILLEEQAAREFIEWLLAGGPSSGALQAPGQAPLASHLSTAQTQRLSAELHK([AEEA-AEEA-γGlu-C20 diacid])LATLPRTETGSGSP-NH2 [Compound 99]	−46
Y[Aib]EGTFTSDYSILLEEQAAREFIEWLLAGGPSSGAPPPSGGGEASHLSTAQTQRLSAK([AEEA-AEEA-γGlu-C18 diacid])LHRLATLPRTETGSGSP-NH2 [Compound 109]	−28
Y[Aib]EGTFTSDYSILLEEQAAREFIEWLLAGGPSSGAPPPSGGGEASHLSTAQTQRLSAK([AEEA-AEEA-γGlu-C20 diacid])LHRLATLPRTETGSGSP-NH2 [Compound 110]	−23
Y[Aib]EGTFTSDYSILLEEQAAREFIEWLLAGGPSSGEASHLSTAQTQRLSAELHK([AEEA-AEEA-γGlu-C18 diacid])LATLPRTETGSGSP-NH2 [Compound 50]	−21
Y[Aib]EGTFTSDYSILLEEQAAREFIEWLLAGGPSSGEASHLSTAQTQRLSAELHRLK([AEEA-AEEA-γGlu-C18 diacid])TLPRTETGSGSP-NH2 [Compound 80]	−23
Y[Aib]EGTFTSDYSILLEEQAAREFIEWLLAGGPSSGEASHLSTAQTQRLSAK([AEEA-AEEA-γGlu-C18 diacid])LHRLATLPRTETGSGSP-NH2 [Compound 79]	−5

Same assay, conditions: single dose 30 nmol/kg, day 1 [0-24 hours]

Substance	Food intake (relative to vehicle) Day 1 [%]
Y[Aib]EGTFTSDYSILLEEQAAREFIEWLLAGGPSK([AEEA-AEEA-γGlu-C18 diacid])GEASHLSTAQTARLSAELHELATLPRTETGSGSP-NH2 [Compound 35]	−42

Same assay, conditions: single dose 30 nmol/kg, day 2 [24-48 hours]

Substance	Food intake (relative to vehicle) Day 2 [%]
Y[Aib]EGTFTSDYSILLEEQAAREFIEWLLAGGPSK([AEEA-AEEA-γGlu-C18 diacid])GEASHLSTAQTARLSAELHELATLPRTETGSGSP-NH2 [Compound 35]	−18

Same assay, conditions: single dose 30 nmol/kg, day 3 [48-72 hours]

Substance	Food intake (relative to vehicle) Day 3 [%]
Y[Aib]EGTFTSDYSILLEEQAAREFIEWLLAGGPSK([AEEA-AEEA-γGlu-C18 diacid])GEASHLSTAQTARLSAELHELATLPRTETGSGSP-NH2 [Compound 35]	−16

Source: patent US20260174875A1 (Novo Nordisk A/S, priority 2023, published 2026)
